Reference: ChEMBL document CHEMBL1143491, “Pentacyclic triterpenes. Part 1: the first examples of naturally occurring pentacyclic triterpenes as a new class of inhibitors of glycogen phosphorylases” (Bioorg Med Chem Lett, 2005)

What follows are compounds tested against T1, Glycogen phosphorylase, liver form (Rattus norvegicus, UniProt P09811) (assay: Inhibitory concentration against rat liver glycogen phosphorylase).
T1 sequence (P09811 whole entry): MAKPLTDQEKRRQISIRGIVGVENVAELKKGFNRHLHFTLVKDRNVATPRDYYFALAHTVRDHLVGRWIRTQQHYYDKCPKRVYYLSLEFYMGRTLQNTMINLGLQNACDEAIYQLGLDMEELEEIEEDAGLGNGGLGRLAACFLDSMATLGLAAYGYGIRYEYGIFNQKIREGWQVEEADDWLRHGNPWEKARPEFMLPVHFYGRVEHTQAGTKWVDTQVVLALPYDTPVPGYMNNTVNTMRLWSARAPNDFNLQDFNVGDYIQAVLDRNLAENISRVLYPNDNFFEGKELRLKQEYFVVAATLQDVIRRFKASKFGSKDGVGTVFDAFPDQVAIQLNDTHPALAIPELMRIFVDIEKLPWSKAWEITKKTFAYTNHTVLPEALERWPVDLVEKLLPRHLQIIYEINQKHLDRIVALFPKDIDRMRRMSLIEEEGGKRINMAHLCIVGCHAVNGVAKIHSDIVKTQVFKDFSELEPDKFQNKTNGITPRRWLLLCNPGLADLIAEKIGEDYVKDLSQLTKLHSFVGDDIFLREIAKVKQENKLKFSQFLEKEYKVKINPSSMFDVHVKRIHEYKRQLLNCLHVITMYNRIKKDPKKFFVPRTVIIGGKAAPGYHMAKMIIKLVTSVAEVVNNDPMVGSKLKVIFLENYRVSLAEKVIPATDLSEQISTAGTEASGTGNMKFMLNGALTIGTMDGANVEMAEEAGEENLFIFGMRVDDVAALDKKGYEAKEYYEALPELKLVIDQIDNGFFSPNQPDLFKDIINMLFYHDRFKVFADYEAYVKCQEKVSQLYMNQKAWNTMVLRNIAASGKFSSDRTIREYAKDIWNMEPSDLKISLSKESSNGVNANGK
With `Cn1c(=O)c2c(ncn2C)n(C)c1=O` [CAFFEINE] the IC50 was 648 µM. Compound `C[C@H]1[C@H](C)CC[C@]2(C(=O)O)CC[C@]3(C)C(=CC[C@@H]4[C@@]5(C)C[C@@H](O)[C@H](O)C(C)(C)[C@@H]5CC[C@]43C)[C@H]12` [COROSOLIC ACID] has an IC50 of 101 µM. Compound `CC1(C)CC[C@]2(C(=O)O)CC[C@]3(C)C(=CC[C@@H]4[C@@]5(C)C[C@@H](O)[C@H](O)C(C)(C)[C@@H]5CC[C@]43C)[C@@H]2C1` [MASLINIC ACID] has an IC50 of 99 µM.
